Earlier results as cited in patent US20200253951A1, “COMBINATION OF AN […] AGENT WITH […]/OR DO[…] FOR USE IN PREVENTING/STOPPING OF AXIAL MYOPIA IN HUMAN” (priority 2016, published 2020).

Assays:
conjunctiva = settings: pediatric population, atropine 0,1%, 0,05% and 0,01%
axial myopia = settings: one drop of 1% Atropine collirium at bedtime, chinese children, placebo controlled

## CN1[C@@H]2CC[C@H]1C[C@@H](OC(=O)C(CO)c1ccccc1)C2 (some centres unmarked) [Atropine]
conjunctiva
  subjects who developed ocular redness and itching: around 5%
Axial myopia
  subjects in whom development of axial myopia was halted (stopping the elongation of the bulb): 90%
